# Data from ChEMBL document CHEMBL5113460, “Discovery of dual inhibitors of topoisomerase I and Cyclooxygenase-2 for colon cancer therapy” (Eur J Med Chem, 2022).
# Active and inactive are the calls of the source. The calls are words filed in the database; no cut-off is given here.
# Assays:
# HT-29 [1] = test: Induction of apoptosis in human HT-29 cells assessed as necrotic cells at 4 uM incubated for 24 hr by Annexin-V-FITC/PI staining based flow cytometry (Rvb=1.67%); assay type: functional
# [2] = Water solubility of compound by HPLC analysis; assay type: physicochemical
# RKO [3] = test: Induction of apoptosis in human RKO cells assessed as early apoptotic cells at 6 uM incubated for 24 hr by Annexin-V-FITC/PI staining based flow cytometry (Rvb= 7.27%); assay type: functional
# HT-29 [4] = test: Antiproliferative activity against human HT-29 cells assessed as inhibition of cell colonies at 0.25 to 1 uM incubated for 7 days by crystal violet staining based microscopic analysis; assay type: functional; details: dose 0.25-1 µM, time 7.0 day
# HT-29 [5] = test: Induction of apoptosis in human HT-29 cells assessed as increase in Bax protein level at 2 to 8 uM incubated for 24 hrs by western blot analysis; assay type: functional, cell-based; details: dose 2-8 µM
# HT-29 [6] = test: Induction of apoptosis in human HT-29 cells assessed as late apoptotic cells at 8 uM incubated for 24 hr by Annexin-V-FITC/PI staining based flow cytometry (Rvb=8.60%); assay type: functional
# RKO [7] = test: Induction of apoptosis in human RKO cells assessed as early apoptotic cells at 9 uM incubated for 24 hr by Annexin-V-FITC/PI staining based flow cytometry (Rvb= 7.27%); assay type: functional
# RKO [8] = test: Induction of DNA damage in human RKO cells assessed as increase in tail length at 3 to 9 uM incubated for 24 hrs by Comet assay; assay type: functional, cell-based; details: dose 3-9 µM
# HT-29 [9] = test: Antitumor activity against human HT-29 cells xenografted in BALB/c mouse assessed as reduction of tumor weight at 15 mg/kg, ip bid and measured after 14 days; assay type: functional, organism-based; details: time 14.0 day
# HT-29 [10] = test: Induction of apoptosis in human HT-29 cells assessed as increase in cleaved caspase-3 protein level at 2 to 8 uM incubated for 24 hrs by western blot analysis; assay type: functional, cell-based; details: dose 2-8 µM
# HT-29 [11] = test: Induction of apoptosis in human HT-29 cells assessed as early apoptotic cells at 4 uM incubated for 24 hr by Annexin-V-FITC/PI staining based flow cytometry (Rvb=6.25%); assay type: functional
# HT-29 [12] = test: Induction of apoptosis in human HT-29 cells assessed as viable cells at 8 uM incubated for 24 hr by Annexin-V-FITC/PI staining based flow cytometry (Rvb= 83.5%); assay type: functional; details: read-out: Activity
# HT-29 [13] = test: Induction of apoptosis in human HT-29 cells assessed as increase in cytochrome c protein level at 2 to 8 uM incubated for 24 hrs by western blot analysis; assay type: functional, cell-based; details: dose 2-8 µM
# HT-29 [14] = test: Antitumor activity against human HT-29 cells xenografted in BALB/c mouse assessed as inhibition of tumor growth at 30 mg/kg, ip bid and measured after 14 days by vernier caliper method; assay type: functional; details: HT-29, 336 h, time 14 day, read-out: TGI
# HT-29 [15] = test: Antitumor activity against human HT-29 cells xenografted in BALB/c mouse assessed as inhibition of tumor growth at 15 mg/kg, ip bid and measured after 14 days by vernier caliper method; assay type: functional; details: HT-29, 336 h, time 14 day, read-out: TGI
# HT-29 [16] = test: Induction of apoptosis in human HT-29 cells assessed as early apoptotic cells at 2 uM incubated for 24 hr by Annexin-V-FITC/PI staining based flow cytometry (Rvb=6.25%); assay type: functional
# HT-29 [17] = test: Induction of apoptosis in human HT-29 cells assessed as late apoptotic cells at 4 uM incubated for 24 hr by Annexin-V-FITC/PI staining based flow cytometry (Rvb=8.60%); assay type: functional
# HT-29 [18] = test: Induction of apoptosis in human HT-29 cells assessed as necrotic cells at 8 uM incubated for 24 hr by Annexin-V-FITC/PI staining based flow cytometry (Rvb=1.67%); assay type: functional
# RKO [19] = test: Antiproliferative activity against human RKO cells assessed as inhibition of cell proliferation incubated for 24 to 72 hrs by MTT assay; assay type: functional, cell-based; details: time 24-72 hrs, DDE = dose-dependent effect
# RKO [20] = test: Induction of apoptosis in human RKO cells assessed as late apoptotic cells at 9 uM incubated for 24 hr by Annexin-V-FITC/PI staining based flow cytometry (Rvb= 4.49%); assay type: functional
# RKO [21] = test: Induction of apoptosis in human RKO cells assessed as reduction in mitochondrial membrane potential at 3 to 9 uM by TMRE staining based flow cytometry; assay type: functional, cell-based; details: dose 3-9 µM
# HT-29 [22] = test: Induction of cell cycle arrest in human HT-29 cells assessed as ratio of G1/G0 phase at 2 to 8 uM incubated for 24 hrs by flow cytometry (Rvb= 55.20%); assay type: functional; details: dose 2-8 µM
# HCT-116 = test: Antitumor activity against human HCT-116 cells assessed as inhibition of cell proliferation incubated for 72 hrs by MTT assay; assay type: functional, cell-based; details: HCT-116, 72 h
# HT-29 [23] = test: Antitumor activity against human HT-29 cells assessed as inhibition of cell proliferation incubated for 72 hrs by MTT assay; assay type: functional, cell-based; details: HT-29, 72 h
# RKO [24] = test: Induction of apoptosis in human RKO cells assessed as early apoptotic cells at 3 uM incubated for 24 hr by Annexin-V-FITC/PI staining based flow cytometry (Rvb= 7.27%); assay type: functional
# HT-29 [25] = test: Induction of apoptosis in human HT-29 cells assessed as increase in intracellular ROS level at 2 to 8 uM for 24 hrs by DCFH-DA staining-based flow cytometric analysis; assay type: functional, cell-based; details: dose 2-8 µM
# HT-29 [26] = test: Antitumor activity against human HT-29 cells xenografted in BALB/c mouse assessed as tumor necrosis at 15 to 30 mg/kg, ip bid for 14 days by hematoxylin-eosin staining analysis; assay type: functional, organism-based; details: dose 15-30 mg/kg, time 14.0 day
# RKO [27] = test: Induction of apoptosis in human RKO cells assessed as increase in cytochrome c protein level at 3 to 9 uM incubated for 24 hrs by western blot analysis; assay type: functional, cell-based; details: dose 3-9 µM
# [28] = Cmax in Sprague-Dawley rat at 100 mg/kg, po and measured upto 24 hrs by LC-MS analysis; assay type: ADME, organism-based; design: time < 24 hrs, dose 100 mg/kg, route po; details: in vivo
# HT-29 [29] = test: Induction of apoptosis in human HT-29 cells assessed as late apoptotic cells at 2 uM incubated for 24 hr by Annexin-V-FITC/PI staining based flow cytometry (Rvb=8.60%); assay type: functional
# RKO [30] = test: Induction of apoptosis in human RKO cells assessed as late apoptotic cells at 6 uM incubated for 24 hr by Annexin-V-FITC/PI staining based flow cytometry (Rvb= 4.49%); assay type: functional
# [31] = Tmax in Sprague-Dawley rat at 30 mg/kg, po and measured upto 12 hrs by LC-MS analysis; assay type: ADME, organism-based; details: in vivo
# HT-29 [32] = test: Antitumor activity against human HT-29 cells xenografted in BALB/c mouse assessed as reduction of tumor weight at 30 mg/kg, ip bid and measured after 14 days; assay type: functional, organism-based; details: time 14.0 day
# RKO [33] = test: Induction of apoptosis in human RKO cells assessed as necrotic cells at 3 uM incubated for 24 hr by Annexin-V-FITC/PI staining based flow cytometry (Rvb= 0.30%); assay type: functional
# RKO [34] = test: Antiproliferative activity against human RKO cells assessed as inhibition of cell colonies at 0.37 to 1.5 uM incubated for 7 days by crystal violet staining based microscopic analysis; assay type: functional; details: dose 0.37-1.5 µM, time 7.0 day
# [35] = AUC (0-t) in Sprague-Dawley rat at 100 mg/kg, po and measured upto 24 hrs by LC-MS analysis; assay type: ADME, organism-based; design: dose 100 mg/kg, time < 24 hrs, route po; details: in vivo
structure (smiles),measurement,setting,value
Cc1c(Cl)cccc1Nc1ccccc1C(=O)Nc1ccc(N2CCNCC2)cc1,Activity,HT-29 [1],1.06%
same,solubility,[2],32.3 µg/mL
same,Activity,RKO [3],10.5%
same,Activity,HT-29 [4],Active
same,Activity,HT-29 [5],Active
same,Activity,HT-29 [6],26.1%
same,Activity,RKO [7],22.7%
same,Activity,RKO [8],Active
same,Activity,HT-29 [9],Active
same,Activity,HT-29 [10],Active
same,Activity,HT-29 [11],4.95%
same,viability at 8 µM,HT-29 [12],68.9%
same,Activity,HT-29 [13],Active
same,inhibition in vivo at 30 mg/kg,HT-29 [14],57.9%
same,inhibition in vivo at 15 mg/kg,HT-29 [15],40.7%
same,Activity,HT-29 [16],4.85%
same,Activity,HT-29 [17],14%
same,Activity,HT-29 [18],1.05%
same,Activity,RKO [19],Dde
same,Activity,RKO [20],11.2%
same,Activity,RKO [21],Active
same,Activity,HT-29 [22],65.17%
same,IC50,HCT-116,8.42 µM
same,IC50,HT-29 [23],1.48 µM
same,Activity,RKO [24],6.88%
same,Activity,HT-29 [25],Active
same,Activity,HT-29 [26],Active
same,Activity,RKO [27],Active
same,Cmax,[28],2000 ng/mL
same,Activity,HT-29 [29],11%
same,Activity,RKO [30],6.88%
same,Tmax,[31],16.8 min
same,Activity,HT-29 [32],Active
same,Activity,RKO [33],0.46%
same,Activity,RKO [34],Active
same,AUC(0-t) at 24 h,[35],24800 ng·h/mL
